The experiment has as its target human C5aR (Homo sapiens (Human), UniProt P21730). In words: FLIPR assay: inhibition of C5a-mediated calcium mobilization. Type of experiment: cell-based. Conditions: stable cell line over expressing human C5aR & Gα15, human C5a at EC50 (0.1-0.25 nM). The procedure: Compounds were tested for their ability to inhibit C5a-mediated calcium mobilization using a stable cell line over expressing the human C5aR & the Gα15 protein on the FLIPR (Fluorescent Imaging Plate Reader) Tetra system. Cells were maintained in culture media containing DMEM (Dulbecco's Modified Eagle Medium) with 4.5 g/L glucose, 10% fetal bovine serum, 100 U/mL, 1× non-essential amino acid, and 250 μg/mL G418 (Geneticin). Prior to testing of compounds, cells were plated at 10,000 cells/well in clear bottom 384-well black plate, and incubated overnight at 37° C. with 5% CO2. On the day of experiment, culture media was removed, and replaced with assay buffer HBSS (Hanks' Balanced Salt Solution) with 20 mM HEPES (4-(2-hydroxyethyl)-1-piperazineethanesulfonic acid) and 0.1% BSA (bovine serum albumin) BSA containing calcium 5 dye (Molecular Devices) and 2.5 mM probenecid. After 1 hour incubation at 37° C., 5% CO2 for 60 min, cells were pre-incubated with compounds for 30 minutes at room temperature, in 1% DMSO (dimethyl sulfoxide).
In general terms: Calcium assays in cells follow changes in intracellular calcium, usually with a dye or a luminescent sensor.

human C5aR, sequence (P21730 whole entry): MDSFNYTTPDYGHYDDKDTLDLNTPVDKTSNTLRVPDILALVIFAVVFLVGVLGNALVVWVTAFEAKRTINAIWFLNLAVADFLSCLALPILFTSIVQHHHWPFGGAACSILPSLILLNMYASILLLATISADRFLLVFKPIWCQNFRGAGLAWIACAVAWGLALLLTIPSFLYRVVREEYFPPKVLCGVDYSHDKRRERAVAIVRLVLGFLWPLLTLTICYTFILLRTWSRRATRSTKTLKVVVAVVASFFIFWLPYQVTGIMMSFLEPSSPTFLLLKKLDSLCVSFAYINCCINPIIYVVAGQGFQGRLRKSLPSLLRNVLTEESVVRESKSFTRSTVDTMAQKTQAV

As for `[2H]C1([2H])c2c(C)cc(-c3c(CC)cccc3CC)nc2CC(C)N1c1cc(C(C)C)ccc1C` (single isomer, unassigned) [Example 42-K, 2-(2,6-diethylphenyl)-6-(5-isopropyl-2-methylphenyl)-4,7-dimethyl-5,6,7,8-tetrahydro(5,5-^2H2)-1,6-naphthyridine], the IC50 – broadly, the point on the concentration scale where inhibition reaches its midpoint – was 0.217 µM.

For the compound `[2H]C1([2H])c2c(C)cc(-c3c(CC)cccc3CC)nc2CC(C)N1c1cc(C(C)C)ccc1C` (single isomer, unassigned) [Example 42-L, 2-(2,6-diethylphenyl)-6-(5-isopropyl-2-methylphenyl)-4,7-dimethyl-5,6,7,8-tetrahydro(5,5-^2H2)-1,6-naphthyridine], the IC50 is 0.004 µM.

With `Cc1cccc(C)c1-c1nc2c(c(N3CCCC(C)(C)C3)n1)CN(c1cc(C(C)C)nn1C)CC2` [Example 16-I, 2-(2,6-Dimethylphenyl)-4-(3,3-dimethylpiperidin-1-yl)-6-(3-isopropyl-1-methyl-1H-pyrazol-5-yl)-5,6,7,8-tetrdhydropyrido[4,3-d]pyrimidine], the IC50 is 0.048 µM.

Consider `Cc1ccc(C(C)C)cc1N1CCc2nc(-c3cccc4[nH]cc(C)c34)nc(N3CCC(O)C(C)(C)C3)c2C1` (stereo not drawn) [Example 17-AI, l-(6-(5-isopropyl-2-methylphenyl)-2-(3-methyl-1H-indol-4-yl)-5,6,7,8-tetrahydropyrido[4,3-d]pyrimidin-4-yl)-3,3-dimethylpiperidin-4-ol], for which the IC50 turned out to be 0.019 µM.

Regarding `CNc1nc(-c2cccc3[nH]cc(C)c23)nc2c1CN(c1cc(C(C)C)ccc1C)CC2` [Example 17-AJ, 6-(5-isopropyl-2-methylphenyl)-N-methyl-2-(3-methyl-1H-indol-4-yl)-5,6,7,8-tetrahydropyrido[4,3-d]pyrimidin-4-amine], the IC50 was 0.094 µM.

As for `CO[C@@H]1CCN(c2nc(-c3cccc4[nH]cc(C)c34)nc3c2CN(c2cc(C(C)C)ccc2C)CC3)CC1(C)C` [Example 17-AM, (R)-6-(5-Isopropyl-2-methylphenyl)-4-(4-methoxy-3,3-dimethylpiperidin-1-yl)-2-(3-methyl-1H-indol-4-yl)-5,6,7,8-tetrahydropyrido[4,3-d]pyrimidine], the IC50 worked out at 0.002 µM.

For `Cc1ccc(C(C)C)cc1N1CCc2nc(-c3cccc4[nH]cc(C)c34)nc(N3CCC[C@H](O)C3)c2C1` [Example 17-AV, (S)-1-(6-(5-isopropyl-2-methylphenyl)-2-(3-methyl-1H-indol-4-yl)-5,6,7,8-tetrahydropyrido[4,3-d]pyrimidin-4-yl)piperidin-3-ol], the IC50 is 0.012 µM.

As to `Cc1ccc(C(C)C)cc1N1CCc2nc(-c3cccc4[nH]cc(C)c34)nc(N3CCC[C@@H]3CO)c2C1` [Example 17-AZ, (R)-(1-(6-(5-isopropyl-2-methylphenyl)-2-(3-methyl-1H-indol-4-yl)-5,6,7,8-tetrahydropyrido[4,3-d]pyrimidin-4-yl)pyrrolidin-2-yl)methanol], the IC50 turned out to be 0.039 µM.

With `Cc1ccc(C(C)C)cc1N1CCc2nc(-c3cccc4[nH]cc(C)c34)nc(N3CC4(COC4)C3)c2C1` [Example 17-BE, 6-(6-(5-isopropyl-2-methylphenyl)-2-(3-methyl-1H-indol-4-yl)-5,6,7,8-tetrahydropyrido[4,3-d]pyrimidin-4-yl)-2-oxa-6-azaspiro[3.3]heptanes], the IC50 turned out to be 0.415 µM.

As for `Cc1ccc(C(C)C)cc1N1CCc2nc(-c3cccc4[nH]cc(C)c34)nc(N3CC(N(C)C)C3)c2C1` [Example 17-BG, 1-(6-(5-isopropyl-2-methylphenyl)-2-(3-methyl-1H-indol-4-yl)-5,6,7,8-tetrahydropyrido[4,3-d]pyrimidin-4-yl)-N,N-dimethylazetidin-3-amine], the IC50 amounted to 0.015 µM.

For `Cc1ccc(C(C)C)cc1N1CCc2nc(-c3cccc4[nH]cc(C)c34)nc(N[C@@H](CO)C(C)C)c2C1` [Example 17-M, (R)-2-((6-(5-isopropyl-2-methylphenyl)-2-(3-methyl-1H-indol-4-yl)-5,6,7,8-tetrahydropyrido[4,3-d]pyrimidin-4-yl)amino)-3-methylbutan-1-ol], the IC50 turned out to be 0.03 µM.

As for `Cc1ccccc1N1CCc2nc(-c3c(C)cccc3C)nc(N3CCOC(C)(C)C3)c2C1` [Example 17-Y, 4-(2-(2,6-dimethylphenyl)-6-(o-tolyl)-5,6,7,8-tetrahydropyrido[4,3-d]pyrimidin-4-yl)-2,2-dimethylmorpholine], the IC50 was 0.16 µM.

Take `CO[C@H]1CCN(c2nc(-c3ccccc3C(F)(F)F)nc3c2CN(c2cc(C4CC4)ccc2C)CC3)CC1(C)C` [Example 19-K, (S)-6-(5-cyclopropyl-2-methylphenyl)-4-(4-methoxy-3,3-dimethylpiperidin-1-yl)-2-(2-(trifluoromethyl)phenyl)-5,6,7,8-tetrahydropyrido[4,3-d]pyrimidine]: the IC50 is 0.065 µM.

For the compound `CO[C@H]1CCN(c2nc(-c3cccc4cnn(C)c34)nc3c2CN(c2cc(C4(C)COC4)ccc2C)CC3)CC1(C)C` [Example 19-L, (S)-4-(4-methoxy-3,3-dimethylpiperidin-1-yl)-2-(1-methyl-1H-indazol-7-yl)-6-(2-methyl-5-(3-methyloxetan-3-yl)phenyl)-5,6,7,8-tetrahydropyrido[4,3-d]pyrimidine], the IC50 came to 0.746 µM.

With `CO[C@H]1CCN(c2nc(-c3cccc4[nH]cc(C)c34)nc3c2CN(c2cc(C4CC4)ccc2C)CC3)CC1(C)C` [Example 19-N, (S)-6-(5-cyclopropyl-2-methylphenyl)-4-(4-methoxy-3,3-dimethylpiperidin-1-yl)-2-(3-methyl-1H-indol-4-yl)-5,6,7,8-tetrahydropyrido[4,3-d]pyrimidine], the IC50 is 0.029 µM.

As to `COc1ccc(Cl)cc1-c1nc2c(c(N3CCCC(C)(C)C3)n1)CN(c1cc(C(C)C)ccc1C)CC2` [Example 19-Q, 2-(5-chloro-2-methoxyphenyl)-4-(3,3-dimethylpiperidin-1-yl)-6-(5-isopropyl-2-methylphenyl)-5,6,7,8-tetrahydropyrido[4,3-d]pyrimidine], the IC50 came out at 0.112 µM.

As for `Cc1ccc(C(C)C)cc1N1CCc2nc(-c3c(C4CC4)cnc4[nH]ccc34)nc(N3CCCC(C)(C)C3)c2C1` [Example 20-D, 2-(5-Cyclopropyl-1H-pyrrolo[2,3-b]pyridin-4-yl)-4-(3,3-dimethylpiperidin-1-yl)-6-(5-isopropyl-2-methylphenyl)-5,6,7,8-tetrahydropyrido[4,3-d]pyrimidine], the IC50 came to 0.164 µM.

Take `CO[C@H]1C[C@H]2CC[C@@H](C1)N2c1nc(-c2c(C)cccc2C)nc2c1CN(c1cc(C3(C)COC3)ccc1C)CC2` [Example 21-X, 2-(2,6-dimethylphenyl)-4-((3-endo)-3-methoxy-8-azabicyclo[3.2.1]octan-8-yl)-6-(2-methyl-5-(3-methyloxetan-3-yl)phenyl)-5,6,7,8-tetrahydropyrido[4,3-d]pyrimidine]: the IC50 is 0.308 µM.

As to `Cc1ccc(C)c(-c2nc3c(c(N4CCN(CC(N)=O)C[C@H]4C)n2)CN(c2cc(C(C)C)ccc2C)CC3)c1` [Example 24-C, (R)-2-(4-(2-(2,5-Dimethylphenyl)-6-(5-isopropyl-2-methylphenyl)-5,6,7,8-tetrahydropyrido[4,3-d]pyrimidin-4-yl)-3-methylpiperazin-1-yl)acetamide], the IC50 is 0.031 µM.

The values above are taken from patent US8846656B2, “Tetrahydropyrido-pyridine and tetrahydropyrido-pyrimidine compounds and use thereof as C5a receptor modulators” (Novartis AG, priority 2011, dated 2014).
